# Data reported in patent US12391726B2, “Ursolic acid morpholine salt” (EMMYON, INC., priority 2017, dated 2025).
# Structures can show the parent of a compound that is named as a salt. Where two headings read alike, the source gives them in different places. Marks after values point to notes of the source that are not given here.
# Columns and labels:
# male C57BL/6 mice [1] = assay: Direct comparison to molar-matched ursolic acid in obesity-induced glucose intolerance (high-fat chow, 7 weeks); type: in vivo; details: 6 h fast, 0.050% ursolic acid or 0.059% morpholine salt, P<0.01
# Procedure: Weight-matched cohorts of 8-week old male C57BL/6 mice were randomized to receive ad libitum access to either high-fat chow supplemented with 0.050% ursolic acid, or high-fat chow supplemented with a molar-matched dose of ursolic acid-morpholine salt (0.059%). After mice had consumed the diets for 7 weeks, mice were fasted for 6 hours and then subjected to glucose tolerance testing. […] Data are means±SEM from 10 mice per cohort.
# male C57BL/6 mice [2] = assay: Comparative grip strength testing for ursolic acid and salts thereof (standard chow, 6 weeks); type: in vivo; details: for Grip Strength (% Change vs. Control): 6 weeks, mean ± SEM, 12 mice; for Potency and efficacy compared with native ursolic acid and other ursolic acid salts: conclusion from Table I grip strength data
# From the text: Weight-matched cohorts of 8-week old male C57BL/6 mice were randomized to receive ad libitum access to either standard chow (control) or standard chow supplemented with either 0.050% ursolic acid, 0.200% ursolic acid, or one of the indicated ursolic acid salts: ursolic acid-ethanolamine salt; ursolic acid-tris(hydroxymethyl)aminomethane salt, hereinafter referred to as ursolic acid-“tris” salt; ursolic acid-lysine salt; ursolic acid-diethanolamine salt; ursolic acid-morpholine salt; or ursolic acid-piperazine salt. The ursolic acid-diethanolamine salt and ursolic acid-morpholine salt were prepared as described above. Ursolic acid was commercially obtained, and was used as a starting material to make the other ursolic acid salts according to techniques analogous to those above and known in the art. The doses of ursolic acid salts were molar-matched to either 0.050% ursolic acid (i.e. 0.057% ursolic acid-ethanolamine salt, 0.063% ursolic acid-tris salt, 0.066% ursolic acid-lysine salt, 0.059% ursolic acid-morpholine salt, and 0.059% ursolic acid-piperazine salt) or to 0.048% ursolic acid (i.e. 0.060% ursolic acid-diethanolamine salt). After mice had consumed these diets for 6 weeks, in vivo grip strength was measured.
# male C57BL/6 mice [3] = details: high-fat chow, 8 weeks, 0.500% Ursolic Acid or 0.059% morpholine salt; for Skeletal Muscle Wt (mg/g Final Body Wt): total dissected muscle weight normalized to final body weight
# From the text: Weight-matched cohorts of 8-week old male C57BL/6 mice were randomized to receive ad libitum access to either high-fat chow (control), high-fat chow supplemented with 0.050% ursolic acid, or high-fat chow supplemented with a molar-matched dose of ursolic acid-morpholine salt (0.059%). Just prior to starting these diets, mice were weighed and subjected to body composition analysis by NMR. After mice had consumed the diets for 8 weeks, body weight and body composition were re-assessed, retroperitoneal and epididymal fat pads were dissected and weighed, and skeletal muscles (tibialis anterior, gastrocnemius, soleus, quadriceps and triceps) were dissected and weighed. In each mouse, the total dissected skeletal muscle weight (combined weight of bilateral tibialis anterior, gastrocnemius, soleus, quadriceps and triceps muscles) was normalized to the final body weight. Data are means±SEM from 10 mice per cohort.
# C2C12 myotubes = assay: Total cellular protein in cultured C2C12 myotubes (in vitro model of skeletal muscle); type: cell-based; details: 48 hours, 10% FBS; for Total cellular protein (FIG. 6): normalized to vehicle-treated, dose-dependent
# Procedure: A direct, side-by-side comparison of ursolic acid and ursolic acid-morpholine salt was performed in an in vitro model of skeletal muscle. C2C12 myoblasts were cultured and fully differentiated into post-mitotic skeletal myotubes, then incubated for 48 hours with 10% fetal bovine serum (FBS) plus the indicated concentrations of ursolic acid or ursolic acid-morpholine salt. Myotubes were then harvested for assessment of total cellular protein, which increases as myotubes undergo hypertrophy. (See Dyle et al., Systems-based discovery of tomatidine as a natural small molecule inhibitor of skeletal muscle atrophy, Journal of Biological Chemistry 289, (2014) 14913-14924.) Total protein in each sample was normalized to the amount of in vehicle-treated myotubes. […] Results are shown in FIG. 6, which is a graph depicting results from the direct, side-by-side comparison of ursolic acid and ursolic acid-morpholine salt in the cultured C2C12 myotubes in vitro model of skeletal muscle.
# male C57BL/6 mice [4] = assay: Ursolic acid-diethanolamine salt: body weight and composition testing (standard chow, 7 weeks); type: in vivo
# Procedure: After mice had consumed these diets for 7 weeks, mice were weighed and body composition was assessed by NMR. Data are means±SEM from 15 mice per cohort. *P<0.05.
# male C57BL/6 mice [5] = details: 0.059% in high-fat chow, 8 weeks, 6 h fast; control 37,122±1,339; P<0.01
# Procedure: Weight-matched cohorts of 8-week old male C57BL/6 mice were randomized to receive ad libitum access to either high-fat chow (control) or high-fat chow supplemented with 0.059% ursolic acid-morpholine salt. After mice had consumed the diets for 8 weeks, mice were fasted for 6 hours and then subjected to glucose tolerance testing. Results are shown in FIG. 3, which is a graph depicting glucose tolerance testing results. Data are means±SEM from 15 mice per cohort.
# male C57BL/6 mice [6] = details: retroperitoneal fat pads, 0.059% in standard chow, 7 weeks, vs control
# From the text: (§1) Weight-matched cohorts of 8-week old male C57BL/6 mice were randomized to receive ad libitum access to either standard chow (control) or standard chow supplemented with 0.059% ursolic acid-morpholine salt. After mice had consumed these diets for 7 weeks, retroperitoneal fat pads were dissected, fixed, cross-sectioned, stained with hematoxylin and eosin, and subjected to photomicrography. FIG. 2A is a photomicrograph of adipocytes from retroperitoneal fat pads from the control group. FIG. 2B is a photomicrograph of adipocytes from retroperitoneal fat pads from the ursolic acid-morpholine salt group.
# diet-induced obese mice = assay: Obesity and blood glucose testing (high-fat chow, 9 weeks); type: in vivo; details: 0.059% in high-fat chow
# From the text: Weight-matched cohorts of 8-week old male C57BL/6 mice were randomized to receive ad libitum access to either high-fat chow (control) or high-fat chow supplemented with 0.059% ursolic acid-morpholine salt. Just prior to starting these diets, mice were weighed and subjected to body composition analysis by NMR. After mice had consumed the diets for 9 weeks, body weight and body composition were re-assessed, retroperitoneal and epididymal fat pads were dissected and weighed, and non-fasting blood glucose was measured.
# male C57BL/6 mice [7] = details: quadriceps, 0.059% in standard chow, 7 weeks, vs control
# From the text: as §1, with “quadriceps muscles” for “retroperitoneal fat pads”, “1A” for “2A”, “quadriceps skeletal muscle fibers” for “adipocytes from retroperitoneal fat pads”, “1B” for “2B”
# male C57BL/6 mice [8] = assay: Comparison with a maximally effective dose of ursolic acid (high-fat diet, 7 weeks, glucose tolerance test); type: in vivo; details: 0.059% morpholine salt vs 0.20% w/w ursolic acid
# Procedure: After 7 weeks on the diets, mice were fasted for 6 hours and were then subjected to glucose tolerance tests.
# male C57BL/6 mice [9] = details: 0.059% in standard chow, 7 weeks
# Procedure: Weight-matched cohorts of 8-week old male C57BL/6 mice were randomized to receive ad libitum access to either standard chow (control) or standard chow supplemented with 0.059% ursolic acid-morpholine salt. After mice had consumed these diets for 7 weeks, in vivo, grip strength was measured, mice were weighed, body composition was assessed by NMR, and quadriceps muscles were dissected for histological analysis of skeletal muscle fiber cross-sectional diameter.
# [10] = standard chow supplemented, doses molar-matched to 0.050% ursolic acid (0.048% for diethanolamine salt): 0.050% ursolic acid, 0.057% ethanolamine, 0.063% tris, 0.066% lysine, 0.060% diethanolamine, 0.059% morpholine, 0.059% piperazine salt
smiles,measurement,setting,value
"C[C@H]1[C@H](C)CC[C@]2(C(=O)O)CC[C@]3(C)C(=CC[C@@H]4[C@@]5(C)CC[C@H](O)C(C)(C)C5CC[C@]43C)[C@H]12 (stereo partly shown) [Ursolic Acid, Ursolic acid]",Fasting blood glucose,male C57BL/6 mice [1],166.3 ± 3.7 mg/dL
same,Glucose tolerance test area under the curve (AUC),male C57BL/6 mice [1],"40,585±1,357"
same,Grip Strength (% Change vs. Control),male C57BL/6 mice [2]; [10],7.7 ± 1.9%
same,Grip Strength (% Change vs. Control),male C57BL/6 mice [2]; standard chow with 0.200% ursolic acid,9.9 ± 2.2 %
same,Epididymal Fat Pad Wt,male C57BL/6 mice [3],2208.6 ± 52.0 ^a mg
same,Final % Fat,male C57BL/6 mice [3],39.8 ± 0.7 ^a %
same,Final % Lean,male C57BL/6 mice [3],50.4 ± 0.5 ^a %
same,Final Body Wt,male C57BL/6 mice [3],40.8 ± 0.5 ^a g
same,Final Fat Mass,male C57BL/6 mice [3],16.3 ± 0.3 ^a g
same,Final Lean Mass,male C57BL/6 mice [3],20.6 ± 0.3 ^a g
same,Retroperitoneal Fat Pad Wt,male C57BL/6 mice [3],986.1 ± 21.8 ^a mg
same,Skeletal Muscle Wt (mg/g Final Body Wt),male C57BL/6 mice [3],25.5 ± 0.4 ^a mg/g Final Body Wt
same,Total cellular protein (FIG. 6),C2C12 myotubes,significantly increased
"C[C@H]1[C@H](C)CC[C@]2(C(=O)O)CC[C@]3(C)C(=CCC4[C@@]5(C)CC[C@H](O)C(C)(C)C5CC[C@]43C)[C@H]12 (stereo partly shown) [Ursolic Acid-Diethanolamine Salt, ursolic acid diethanolamine salt]",Final % Fat,male C57BL/6 mice [4]; 0.060% in standard chow,16.6 ± 2.0%
same,Final % Lean,male C57BL/6 mice [4]; 0.060% in standard chow,64.2 ± 1.6%
same,Final Body Wt,male C57BL/6 mice [4]; 0.060% in standard chow,31.7 ± 0.5 g
same,Final Fat Mass,male C57BL/6 mice [4]; 0.060% in standard chow,5.3 ± 0.7 g
same,Final Lean Mass,male C57BL/6 mice [4]; 0.060% in standard chow,20.3 ± 0.4* g
same,Final % Fat,male C57BL/6 mice [4]; 0.180% in standard chow,14.1 ± 1.8* %
same,Final % Lean,male C57BL/6 mice [4]; 0.180% in standard chow,65.5 ± 1.4* %
same,Final Body Wt,male C57BL/6 mice [4]; 0.180% in standard chow,30.7 ± 0.5 g
same,Final Fat Mass,male C57BL/6 mice [4]; 0.180% in standard chow,4.4 ± 0.6* g
same,Final Lean Mass,male C57BL/6 mice [4]; 0.180% in standard chow,20.0 ± 0.3 g
same,Lean mass and fat mass (conclusion),"male C57BL/6 mice [4]; conclusion from Table IV, standard chow",increased lean mass and decreased fat mass
same,Potency and efficacy compared with native ursolic acid and other ursolic acid salts,male C57BL/6 mice [2],more potent and efficacious
same,Grip Strength (% Change vs. Control),male C57BL/6 mice [2]; [10],11.7 ± 2.5 %
"CC1CCC2(C(=O)O)CCC3(C)C(=CCC4C5(C)CCC(O)C(C)(C)C5CCC43C)C2C1C.NCCO (stereo not shown) [Ursolic Acid-Ethanolamine Salt, ursolic acid-ethanolamine salt]",Grip Strength (% Change vs. Control),male C57BL/6 mice [2]; [10],2.8 ± 1.6%
"CC1CCC2(C(=O)O)CCC3(C)C(=CCC4C5(C)CCC(O)C(C)(C)C5CCC43C)C2C1C.NCCCCC(N)C(=O)O (stereo not shown) [Ursolic Acid-Lysine Salt, ursolic acid-lysine salt]",Grip Strength (% Change vs. Control),male C57BL/6 mice [2]; [10],7.2 ± 2.3%
"C[C@H]1[C@H](C)CC[C@]2(C(=O)O)CC[C@]3(C)C(=CC[C@@H]4[C@@]5(C)CC[C@H](O)C(C)(C)[C@@H]5CC[C@]43C)[C@H]12 [Ursolic Acid-Morpholine Salt, ursolic acid morpholine salt]",Glucose tolerance test area under the curve (AUC),male C57BL/6 mice [5],"31,383±1,869"
same,Adipocyte size (FIGS. 2A and 2B),male C57BL/6 mice [6],decreased adipocyte size
same,Epididymal Fat Pad Wt,diet-induced obese mice,1804.0 ± 161.5 mg
same,Final % Fat,diet-induced obese mice,31.8 ± 3.1 %
same,Final % Lean,diet-induced obese mice,55.3 ± 2.4 %
same,Final Body Wt,diet-induced obese mice,38.9 ± 1.2 g
same,Final Fat Mass,diet-induced obese mice,12.8 ± 1.4 g
same,Final Lean Mass,diet-induced obese mice,21.3 ± 0.6 g
same,Retroperitoneal Fat Pad Wt,diet-induced obese mice,731.8 ± 86.9 mg
same,Obesity in diet-induced obese mice,diet-induced obese mice; conclusion from Table III,reduced obesity
same,Blood Glucose,diet-induced obese mice; non-fasting,177.7 ± 9.9 mg/dL
same,Skeletal muscle fiber size (FIGS. 1A and 1B),male C57BL/6 mice [7],increased skeletal muscle fiber size
same,Fasting blood glucose,male C57BL/6 mice [1],140.6 ± 7.8 mg/dL
same,Glucose tolerance test area under the curve (AUC),male C57BL/6 mice [1],"32,606±2,471"
same,Glucose tolerance test AUC relative to ursolic acid (FIG. 5),"male C57BL/6 mice [8]; 7 weeks, 6 h fast, P<0.05",significantly lower
same,Grip strength relative to ursolic acid,male C57BL/6 mice [8]; P=0.05,significantly improved
same,Final Body Wt,male C57BL/6 mice [9],34.6 ± 1.0 g
same,Final Grip Strength,male C57BL/6 mice [9],181.9 ± 2.4 g
same,Final % Fat,male C57BL/6 mice [9]; NMR,21.4 ± 2.9 %
same,Final % Lean,male C57BL/6 mice [9]; NMR,61.0 ± 2.2 %
same,Final Fat Mass,male C57BL/6 mice [9]; NMR,7.8 ± 1.2 g
same,Final Lean Mass,male C57BL/6 mice [9]; NMR,20.8 ± 0.3 g
same,Skeletal muscle hypertrophy,male C57BL/6 mice [9]; conclusion from Table II,stimulated skeletal muscle hypertrophy
same,Muscle fiber diameter,"male C57BL/6 mice [9]; quadriceps, >4200 fibers per diet",44.8 ± 0.2 μm
same,Potency and efficacy compared with native ursolic acid and other ursolic acid salts,male C57BL/6 mice [2],more potent and efficacious
same,Grip Strength (% Change vs. Control),male C57BL/6 mice [2]; [10],11.3 ± 2.1 %
same,Epididymal Fat Pad Wt,male C57BL/6 mice [3],1713.8 ± 139.8 ^b mg
same,Final % Fat,male C57BL/6 mice [3],31.4 ± 2.8 ^b %
same,Final % Lean,male C57BL/6 mice [3],57.3 ± 2.1 ^b %
same,Final Body Wt,male C57BL/6 mice [3],36.6 ± 0.9 ^b g
same,Final Fat Mass,male C57BL/6 mice [3],11.6 ± 1.2 ^b g
same,Final Lean Mass,male C57BL/6 mice [3],20.9 ± 0.7 ^a g
same,Retroperitoneal Fat Pad Wt,male C57BL/6 mice [3],709.8 ± 72.2 ^b mg
same,Skeletal Muscle Wt (mg/g Final Body Wt),male C57BL/6 mice [3],29.1 ± 1.0 ^b mg/g Final Body Wt
same,Efficacy relative to ursolic acid (total cellular protein),C2C12 myotubes,3 fold
same,Potency relative to ursolic acid (total cellular protein),C2C12 myotubes,3 fold
same,Total cellular protein (FIG. 6),C2C12 myotubes,significantly increased
"C1CNCCN1.C[C@H]1[C@H](C)CC[C@]2(C(=O)O)CC[C@]3(C)C(=CC[C@@H]4[C@@]5(C)CC[C@H](O)C(C)(C)[C@@H]5CC[C@]43C)[C@H]12 [Ursolic Acid-Piperazine Salt, ursolic acid-piperazine salt]",Grip Strength (% Change vs. Control),male C57BL/6 mice [2]; [10],3.7 ± 2.5%
"CC1CCC2(C(=O)O)CCC3(C)C(=CCC4C5(C)CCC(O)C(C)(C)C5CCC43C)C2C1C.NC(CO)(CO)CO (stereo not shown) [Ursolic Acid-Tris Salt, ursolic acid-tris(hydroxymethyl)aminomethane salt]",Grip Strength (% Change vs. Control),male C57BL/6 mice [2]; [10],5.2 ± 1.6%
